Results: patent US20070117182A1, “Nucleic acids conferring transcriptional responsiveness on the RANKL gene promoter and uses thereof” (Wisconsin Alumni Research Foundation, priority 2005, published 2007)

Tests used:
[1] = test system: human D5 region (TK-hRLD5); assay: TK-hRLD5 luciferase reporter in MG-63 cells; assay type: cell-based; details: 24 hours
Description: FIG. 14. […] Cells were treated with the indicated inducers for the periods identified and isolated RNA subjected to PCR analysis for Cyp24, RANKL and b-actin. […] Two different primer sets to the human D5 region were used to assess VDR binding. […] Luciferase activity was analysed 24 hours later. […] Data are the average of triplicate determinations, SEM.
Approximately 1000 bp of the human RANKL gene comprising D5 was cloned and inserted into a TK-luciferase expression vector (TK-hRLD5). […] The D5 RL region and an additional region immediately upstream in both the mouse and human genes contain elements that mediate the actions of parathyroid hormone, a variety of prostaglandins, cytokines such as oncostatin M and IL-6, as well as IL-1 and others.

RANKL = assay: RT-PCR of RANKL transcripts in treated ST2 cells; assay type: cell-based, mouse; details: treated up to 24 hours, agent alone, vs beta-actin controls
Description: FIG. 2. Induction of RANKL in ST2 cells by hormones and cytokines. ST2 cells were treated with the agents indicated for periods up to 24 hours. Total RNA was isolated and subjected to RT-PCR using a primer set to mouse RANKL and beta-actin. Positive vitamin D target control genes include Cyp24 and osteopontin (OPN).
The inventors first established a model in which RANKL is both induced in response to 1,25(OH)2D3, PTH (forskolin) and oncostatin M (OSM), and is capable of supporting osteoclast formation when co-cultured with bone marrow monocyte- or spleen cell-derived osteoclast precursors. While a number of cell types express RANKL and induce osteoclastogenesis, the historical literature strongly supports mouse ST2 cells in this capacity, prompting the inventors to focus on this stromal/preosteoblastic line for initial studies. […] Each of these components is known to both induce RANKL expression and promote osteoclast formation as well. […] Indeed, GC effects are widely observed. […] The ability of GCs to enhance osteoclast formation in coculture assays in the presence of 1,25(OH)2D3, however, is likely due also to its coordinate ability to suppress OPG.

[2] = test system: D1-D4 regions of the RANKL gene; assay: pTK-RL(D1)-(D4) luciferase reporters in ST2 cells; assay type: cell-based, mouse
Description: FIG. 12. Transcriptional activities of the D1-D4 regions of the RANKL gene in the context of the TK promoter were analyzed and corresponding data is shown in FIG. 12. The D1-D4 regions of the RANKL gene were cloned into the pTK vector and termed PTK-RL(D1)-(D4). […] Cells were harvested after 24 hours and luciferase activity assessed. Luciferase was normalized using beta-gal activity. Data in FIG. 12 represent the mean of triplicate determinations (SEM).
(§1) The activity of an enhancer must be evaluated in the context of its local environment, preferentially in the context of both other enhancers and its native promoter. In the case of the RANKL gene, however, this is clearly not possible due to the numbers and the distant locations of the potential regulatory regions. […] To ensure that the viral TK promoter background was not contributing to our evaluation, the inventors cloned the mouse RANKL promoter (−100 to +65) into pGL3, inserted RL D5 and evaluated its activity in ST2 cells as well.
Transcriptional activities of the D1-D4 regions of the RANKL gene in the context of the TK promoter were analyzed and corresponding data is shown in FIG. 12. […] Cells were harvested after 24 hours and luciferase activity assessed. […]

[3] = test system: D5 fragment in COS7 cells; assay: pRL-D5/TK-luc reporter in COS7 cells with VDR expression vector; assay type: cell-based, mouse
Description: FIG. 6. Transcriptional activity of the D5 regions of the RANKL gene in the context of the TK promoter. Sequence surrounding the D5 region (1072 bp) was cloned into the pTK-luciferase vector and termed pTK-RL(D5). […] Cells were harvested after 24 hours and luciferase activity assessed. B) ST2 cells were transfected as in A above but without the VDR expression vector and evaluated as in A. C) COS-7 cells were transfected and evaluated as in A above. Luciferase was normalized using beta-gal activity. Data represent the mean of triplicate determinations (SEM). The pTK-luc control vector was unresponsive to any of the inducers (see FIG. 9). *, p<0.05 vs no treatment control.
as §1

For `C=C1/C(=C\C=C2/CCC[C@]3(C)[C@@H]([C@H](C)CCCC(C)(C)O)CC[C@@H]23)C[C@@H](O)C[C@@H]1O` [1,25(OH)2D3], the “activity of human D5 region” value [1] was “induces”, the RANKL transcripts (RANKL) was “substantial time-dependent increase” and the “luciferase activity of regions D1 through D4” value ([2]; increasing concentrations, no added VDR) was “failed to show increased activity”. The “response from D2 and D3” value ([2]; with exogenous VDR expression vector) was “modest response” and the “stimulation via the D5 fragment in COS7 cells” value [3] was “failed to stimulate”.
